We go through eight molecules from patent US11851410B2, “Sensors for detection of negatively charged phosphate-containing membranes and membrane components” (THE GOVERNING COUNCIL OF THE UNIVERSITY OF TORONTO, priority 2017, dated 2023).

Each structure is given as a SMILES string.

For data set [1] the following is noted: cited from earlier work.
For data set [2], the system named is POPA (PA) negatively charged vesicles. Kind of data set: Serial dilution vesicle fluorescence intensity experiments, PA vesicles. Type of data set: binding. Particulars: for ΔΔFI: PA vesicles, sensor 25 μM (PSVue™380 1 μM), 50 mM HEPES, 5% DMSO, pH 7.5. The source says: (§1) The following equations were used for the calculations: […]
Data set [3] has as its system POPE (PE) zwitterionic vesicles. Kind of data set: Serial dilution vesicle fluorescence intensity experiments, PE vesicles. Format: binding. Particulars: sensor 25 μM (PSVue™380 1 μM), 50 mM HEPES, 5% DMSO, pH 7.5.
Text: as §1

The test system of data set [4] is DOPS (PS) negatively charged vesicles. Kind of data set: Serial dilution vesicle fluorescence intensity experiments, PS vesicles. Format: binding. Also noted: ΔΔFI: unit not given here. The note with it: for ΔΔFI: sensor 25 μM (PSVue™380 1 μM), 50 mM HEPES, 5% DMSO, pH 7.5.
Data set [5] has the same test system. The data set is described as above. Type of data set: binding. Details: ΔΔFI: unit not given here. The note with it: for ΔΔFI: sensor 25 μM (PSVue™380 1 μM), 50 mM HEPES, 5% DMSO, pH 7.5.
Text: as §1
It is estimated that a mammalian cell membrane is composed of 10% PS, with the majority located on the inner leaflet in the healthy state. However, during the early stages of apoptosis, this asymmetry is lost and PS becomes symmetrically distributed resulting in ˜5% of PS externalized to the outer leaflet. To address if compounds of this application could potentially be used for the detection of the PS externalization event during apoptosis, the exemplary sensors were screened against PC vesicles containing biologically-relevant levels of PS ([…]; assuming that approximately half of the lipid head groups will be exposed to the interior of the vesicle). The resulting ΔΔFI for vesicle concentrations up to 40 μM are presented in FIG. 7 and Table 1 (ΔΔFI for vesicle concentrations up to 200 μM is presented in FIG. 4).
The source holds these as a separate data set.

Data set [6] has as its system POPG (PG) negatively charged vesicles. The data set is described as follows: Serial dilution vesicle fluorescence intensity experiments, PG vesicles. Format: binding. The note with it: sensor 25 μM (PSVue™380 1 μM), 50 mM HEPES, 5% DMSO, pH 7.5.
Text: as §1

For data set [7], the system named is TOCL (CL) negatively charged vesicles. The data set is described as follows: Serial dilution vesicle fluorescence intensity experiments, CL vesicles. Also noted: ΔΔFI: unit not given here. Particulars: for ΔΔFI: sensor 25 μM (PSVue™380 1 μM), 50 mM HEPES, 5% DMSO, pH 7.5. Type of data set: binding.
Text: as §1

The subject of data set [8] is Gram-positive bacteria (B. subtilis, B. megaterium, M. luteus, S. epidermidis). The note with it: sensor 10 μM; λex/em 350/476 nm.
Protocol: Bacteria samples were titrated from 10^8-10^10 cells/mL in a large-volume 12 well plate. Bacteria samples were added to black 384-well plates in triplicate.
The subject of data set [9] is zwitterionic vesicles (PC, PE). Kind of data set: Vesicle fluorescence intensity experiments, zwitterionic vesicles. Type of data set: binding. Particulars: sensor 25 μM; vesicles up to 200 μM; λex/em 350/476 nm. The method, then:
(§2) Small Unilamellar Vesicles (SUVs) were prepared by the extrusion method. Appropriate amounts of lipid in the desired proportions were weighed out to create 10 mM liposome suspensions. The lipids were then dissolved in a minimum amount of chloroform and vortexed to ensure thorough mixing. The excess solvent was then dried off under a gentle stream of nitrogen and allowed to dry overnight in a vacuum dessicator to remove any remaining traces of solvent. The resulting lipid film was then hydrated with 2 mL of HEPES buffer (50 mM HEPES, pH 7.5) for 1 h. The sample was then subjected to five cycles of freeze-thaw-vortex, cycling between liquid nitrogen and a 60° C. water bath. The resulting suspension of multilamellar vesicles (MLVs) was then extruded 25 times through a 0.1 μm polycarbonate membrane installed in a mini-extruder (Avanti Polar Lipids, Alabaster, AL) to form SUV.
10 mM stock solutions of vesicles were diluted separately to 400 μM and 80 μM in pH 7.5, 50 mM HEPES buffer. […] Fluorescence intensities measured were used to calculate the following parameters: ΔFIexc, ΔΔFIexc, ΔFImon, ΔΔFImon, ΔΔFIexc/mon and ΔΔΔFI. […]
(§3) The fluorescence enhancement of the excimer (ΔFIexc) species in the presence of vesicles was calculated using equation 1, which is defined as the ratio of the emission intensities of the sensor-vesicle sample and the sensor alone.

Data set [10] relates to negatively charged vesicles (PA, PS, PG, CL). Kind of data set: Vesicle fluorescence intensity experiments, all negatively charged vesicles. Type of data set: binding. The note with it: sensor 25 μM; vesicles up to 200 μM; λex/em 350/476 nm. The method, then:
as §2
10 mM stock solutions of vesicles were diluted separately to 400 μM and 80 μM in pH 7.5, 50 mM HEPES buffer. […] The sensors were dissolved to a concentration of 50 μM (from 800 μM stock solutions in 100% DMSO) in 50 mM HEPES, pH 7.5, 10% DMSO buffer. […] Fluorescence intensities measured were used to calculate the following parameters: ΔFIexc, ΔΔFIexc, ΔFImon, ΔΔFImon, ΔΔFIexc/mon and ΔΔΔFI. The following equations were used for the calculations: […]
Of these, PC and PE represented the zwitterionic vesicles; PS (−1), PA (−1), PG (−1) and CL (−2) represented the negatively charged vesicles.
as §3

The next data set relates to PA vesicles. The data set is described as follows: Zinc metalation fluorescence experiments. Format: binding. Particulars: for FIexc response to increasing PA vesicle concentrations, unmetallated: acid-treated glassware, chelex-treated buffers, non-normalized FIexc; for ability to detect PA vesicles in the absence of Zn^2+ (ΔFI): unmetallated sensors, PA vesicles 0-200 μM. The method, then: Vesicle fluorescence intensity experiments were performed in the absence or presence of zinc(II) (trifluoromethanesulfonate salt). Unmetallated PSVue™380 (PSVue™380*) was also included for reference.
All glassware was treated with 0.1 M HCl overnight, rinsed three times with MilliQ water, and oven dried. […] The sensor-zinc solutions were then combined with PA vesicles, prepared as described above, incubated as described above and the fluorescence emission intensity was then measured as described above.
In an effort to eliminate this possibility, all glassware was acid-treated and all buffers were chelex-treated to remove any metals, and the screens were repeated with PA vesicles. For these experiments, original non-normalized FIexc values were analyzed.

Data set [11] concerns WT and mutant E. coli strains. The data set is described as follows: Bacteria mutant strain knockout fluorimetry, E. coli. Format: cell-based. Particulars: for effect of LPS kinase knockouts on fluorescence fold: E. coli ΔWaaP, ΔwaaG; for effect of cardiolipin synthase knockouts on fluorescence fold: E. coli ΔclsA, ΔclsB, ΔclsC. The source says: Fluorescence intensities were used to calculate the excimer emission in response to bacterial strains. Measurements were averaged over two triplicates.

Where [12] appears, read: 75% PS vesicles, 20 μM vesicles.
Where [13] appears, read: PS vesicles (50%), 5 μM vesicles.
[14] abbreviates: PS vesicles (50%), 20 μM vesicles.
The mark [15] stands for this setting: 25% PS vesicles, 20 μM vesicles.
Where [16] appears, read: 33% CL vesicles, 20 μM vesicles.
Where [17] appears, read: CL vesicles (50%), 5 μM vesicles.
The mark [18] stands for this setting: CL vesicles (50%), 20 μM vesicles.

What is called pKa is the pH at which an ionisable group is half protonated. Regarding `c1ccc(CNCc2ccccn2)nc1` [DPA], in [1], the “pKa” value is listed as 2.60, the “pKa (first given)” value was 7.30 and the “pKa (third printed)” value is given as 1.12.
On to `c1cc2ccc3ccc(CCCCN4CCNCCNCCNCC4)c4ccc(c1)c2c34` [I-2], for which the ΔΔFI in data set [2] (5 μM vesicles) was found to be 4.3; in data set [2] (20 μM vesicles) it was 12.3; in data set [3] (5 μM vesicles) it was 1.1; in [3] (20 μM vesicles), 1.6; in [4] (75% PS vesicles, 5 μM vesicles), 4.2; in [4] (setting [12]) it was 11.7. Also, the ΔΔFI in data set [4] (setting [13]) is given as 2.8; in data set [4] (setting [14]) it was 7.6; in [5] (5% PS vesicles, 5 μM vesicles), 1.6; in data set [5] (5% PS vesicles, 20 μM vesicles), 3.1; in data set [5] (25% PS vesicles, 5 μM vesicles), 1.8; in [5] (setting [15]) it was 4.3. In addition, the ΔΔFI is 2.5 in data set [6] (5 μM vesicles); 5.5 in [6] (20 μM vesicles); 3 in [7] (33% CL vesicles, 5 μM vesicles); 7.2 in data set [7] (setting [16]); 4.4 in data set [7] (setting [17]); 12 in [7] (setting [18]).
As to `c1cc2ccc3ccc(CCCCN4CCCNCCNCCCNCC4)c4ccc(c1)c2c34` [I-4], the ΔΔFI in [2] (5 μM vesicles) turned out to be 7.3; in data set [2] (20 μM vesicles), 21.7; in [3] (5 μM vesicles), 1; in data set [3] (20 μM vesicles), 1.3; in data set [4] (75% PS vesicles, 5 μM vesicles), 7.1; in data set [4] (setting [12]) it was 16.7. The ΔΔFI in data set [4] (setting [13]) turned out to be 4.5; in data set [4] (setting [14]) it was 10.3; in data set [5] (5% PS vesicles, 5 μM vesicles), 2.2; in data set [5] (5% PS vesicles, 20 μM vesicles), 3.9; in data set [5] (25% PS vesicles, 5 μM vesicles) it was 2.9; in data set [5] (setting [15]) it was 5.6. Further, the ΔΔFI is 3.4 in [6] (5 μM vesicles); 7.7 in data set [6] (20 μM vesicles); 3.9 in data set [7] (33% CL vesicles, 5 μM vesicles); 9.2 in data set [7] (setting [16]); 5.9 in data set [7] (setting [17]); 16.3 in data set [7] (setting [18]). In [2] (Table 1 comparison), the “sensing PA compared to PSVue™380” value is recorded as “superior”. Also, the “sensitivity compared to PSVue™380, 5 μM PS vesicles” value in data set [4] (5 μM PS vesicles) is recorded as “comparable”. In addition, the “detection of Gram-positive bacteria with a fluorometer in bulk solution” value in data set [8] is “can detect Gram-positive bacteria”. Further, the “detection of PC vesicles containing 5 and 25% PS” value in data set [5] (5 and 25% PS, corresponding to 2.5 and 12.5% of PS exposed to solution) was “efficiently detected”. The “sensitivity compared to PSVue™380, 20 μM CL vesicles” value in data set [7] (20 μM CL vesicles) was “comparable”.
Consider `c1ccc(CN(CCCCc2ccc3ccc4cccc5ccc2c3c45)Cc2ccccn2)nc1` [I-6], for which the ΔΔFI in data set [2] (5 μM vesicles) worked out at 4.4; in [2] (20 μM vesicles), 6.9; in data set [3] (5 μM vesicles), 1; in data set [3] (20 μM vesicles) it was 1; in data set [4] (75% PS vesicles, 5 μM vesicles), 4.5; in data set [4] (setting [12]) it was 7.5. In addition, the ΔΔFI in [4] (setting [13]) is 2.9; in data set [4] (setting [14]), 4.8; in data set [5] (5% PS vesicles, 5 μM vesicles) it was 1.6; in [5] (5% PS vesicles, 20 μM vesicles), 2.4; in [5] (25% PS vesicles, 5 μM vesicles) it was 2.1; in data set [5] (setting [15]), 3. Further, the ΔΔFI in data set [6] (5 μM vesicles) amounted to 1.8; in data set [6] (20 μM vesicles), 2.7; in data set [7] (33% CL vesicles, 5 μM vesicles), 1.9; in data set [7] (setting [16]), 3.1; in [7] (setting [17]), 2.7; in data set [7] (setting [18]) it was 4.3.
As to `O=C(CCCCc1ccc2ccc3cccc4ccc1c2c34)NCCNC(=O)c1ccc(CN(Cc2ccccn2)CC(O)CN(Cc2ccccn2)Cc2ccccn2)nc1` (centres unmarked) [I-12], the “ΔFIexc for zwitterionic vesicles” value in data set [9] was at most 2. In addition, in [10], the “ΔFIexc for all negatively charged vesicles” value was at least 20 and the “ΔFIexc for negatively charged vesicles, highest value (up to)” value is about 80.
For `c1cc2ccc3ccc(CN4CCNCCNCCNCC4)c4ccc(c1)c2c34` [II-1, 1-(pyren-1-ylmethyl)-1,4,7,10-tetraazacyclododecane], in the data set with PA vesicles (PA vesicles), the “ΔFI of unmetallated sensor versus metallated counterpart” value is given as “outperformed its metallated counterpart”. In the data set with PA vesicles, the “FIexc response to increasing PA vesicle concentrations, unmetallated” value is “comparable responses” and the “ability to detect PA vesicles in the absence of Zn^2+ (ΔFI)” value is “retained their ability to detect PA”.
Take `c1cc2ccc3ccc(CN4CCCNCCNCCCNCC4)c4ccc(c1)c2c34` [II-3, 1-(pyren-1-ylmethyl)-1,4,8,11-tetraazacyclotetradecane]: in [11], the “effect of LPS kinase knockouts on fluorescence fold” value is recorded as “little to no change” and the “effect of cardiolipin synthase knockouts on fluorescence fold” value is “greatest effect”.
`c1ccc(CN(Cc2ccccn2)Cc2ccc3ccc4cccc5ccc2c3c45)nc1` [II-5, 1-(pyren-1-yl)-N, N-bis(pyridin-2-ylmethyl)methanamine]: in data set [11], the “effect of LPS kinase knockouts on fluorescence fold” value is reported as “little to no change” and the “effect of cardiolipin synthase knockouts on fluorescence fold” value is recorded as “greatest effect”. Also, in the data set on PA vesicles, the “FIexc response to increasing PA vesicle concentrations, unmetallated” value is “did not respond” and the “ability to detect PA vesicles in the absence of Zn^2+ (ΔFI)” value was “lost their ability to sense PA”.
